Assay [1] deals with PGE2 production in ionomycin-stimulated STTG cells. Description: Prostaglandin E2 assay (PGE2 EIA) in ionomycin-stimulated STTG cells. It is filed as cell-based, human. To be noted: for decrease in PGE2 release / effect on total PGE2 release: FIG. 2. As to the method:
FIG. 1. Percent inhibition of prostaglandin E2 (PGE2) production in ionomycin-stimulated STTG cells. PGE2 production was assayed in ionomycin-stimulated STTG cells treated with N-acetyl-L-aspartate (NAA), aspirin (Asp) or dexamethasone (Dex) using a PGE2 enzyme immunoassay described in Example 1. Cells were pre-incubated for 1 hour with NAA, Asp or Dex and then stimulated with 1 μM ionomycin at 37° C., 10% CO2 for 24 hours. Percent inhibition of PGE2 production was measured compared to ionomycin-stimulated STTG cells in the absence of NAA, Asp or Dex. Data represent mean ±SD of three separate experiments. Asterisks indicate a significant difference between untreated, ionomycin-stimulated STTG cells and treated, ionomycin-stimulated STTG cells: *p<0.01. Iono=ionomycin.
FIG. 2. Effect of glutamate receptor antagonists and NAA on PGE2 release in STTG cells stimulated with ionomycin. PGE2 production was assayed in ionomycin-stimulated STTG cells treated with NAA or potential glutamate receptor antagonists (AP-4 and GDE) using a PGE2 enzyme immunoassay described in Example 1. Cells were pre-incubated for 1 hour with NAA or the potential glutamate receptor antagonists and then cells were stimulated with 1 μM ionomycin at 37° C., 10% CO2 for 24 hours. Percent inhibition of PGE2 production was measured compared to ionomycin-stimulated STTG cells in the absence of NAA or potential glutamate receptor antagonists. Data represent mean ±SD of three separate experiments. Asterisks indicate a significant difference between untreated, ionomycin-stimulated STTG cells and treated, ionomycin-stimulated STTG cells: *p<0.01. AP-4=L-2-amino-4-phosphonobutyric acid, and GDE=L-glutamic acid diethyl ester.
Prostaglandin E2 Assay. Human STTG astroglial cells (CRL-1718, American […], Rockville, Mass.) were grown in 75 cm^2 flasks (10% CO2, 37° C.) containing AGM medium (BioWhittaker, Walkersville, Md.) to near confluency (>90%) prior to subculturing with trypsin/EDTA. Cells were plated on a 24-well plate at 50,000 cells/well and incubated for two days to near confluency prior to dosing with inhibitors. N-Acetyl aspartate (NAA, Sigma-Aldrich, St. Louis, Mo.) was dissolved in AGM medium and brought back to a pH of 7.4. Stock solutions of aspirin were dissolved in DMSO and then diluted in culture medium. DMSO concentrations were never >0.5% in the medium bathing the cells. Cells were then dosed with potential prostaglandin E2 (PGE2) inhibitors (NAA, L-2-Amino-4-phosphonobutyric acid [L-AP-4, Sigma-Aldrich, St. Louis, Mo.], L-glutamic acid diethyl ester [GDE, generous gift from Nagaraja K. R. Rao, DMI Synthesis UK Ltd.], aspirin, or dexamethasone). After a 1-hour incubation, the cells were then stimulated with 1 μM ionomycin (Sigma-Aldrich, St. Louis, Mo.) for 24 hours at 37° C. Total volume per well was 1 mL. Then, 0.5 mL of culture medium was removed from each well and immediately assayed for PGE2 using the Prostaglandin E2 enzyme immunoassay (EIA) system (Amersham, Piscataway, N.J.). The remaining medium containing the cells was assayed for cell viability using cell titer reagent (G358A, Promega, Madison, Wis.).

For assay [2], the system named is activated NFκB in IL-1β-stimulated STTG cells. Description: NFκB assay (ELISA-based) in IL-1β-stimulated STTG cells. It is filed as cell-based, human. To be noted: 1 ng/ml IL-1β, 24 h, FIG. 4. The protocol: FIG. 4. Effect of NAA on NFκB levels in STTG cells stimulated with IL-1. Cells were dosed with NAA and immediately stimulated with 1 ng/ml IL-1 for 24 hours at 37° C., 10% CO2. Cells were lysed, and 10 μg of total protein was assayed for activated NFκB levels using an ELISA-based method. Data represent mean ±SD of three separate experiments. Percentages are percent of inhibition of production of activated NFκB. Asterisks indicate a significant difference between untreated, IL-1β-stimulated STTG cells and NAA-treated, IL-1β-stimulated STTG cells: *p<0.005.
NFκB Assay. STTG cells were treated with NAA and stimulated immediately with 1 ng/ml IL-1β. After a 24-hour incubation, cells were lysed and total protein was quantitated using the BCA™ Protein Assay Kit (Pierce, Rockford, Ill.). Then, 10 μg of protein lysate was assayed for NFκB using the TransAM™ NFκB Family Transcription Factor Assay Kit (Catalog No. 43296, Active Motif, Carlsbad, Calif.).
Effect of NAA on NFκB activation. Activated NFκB was quantitated using a 96-well plate coated with an oligonucleotide that contains an NFκB consensus-binding site. This site specifically binds activated NFκB contained in cell extracts.
A general note: An ELISA detects its analyte on a solid surface through an enzyme-linked reagent.

For the next assay, the target named is T1, COX-2 (Homo sapiens, UniProt P35354).
T1 construct: purchased Oxford Biomedical, Oxford, Mich
T1 sequence (P35354 18-604): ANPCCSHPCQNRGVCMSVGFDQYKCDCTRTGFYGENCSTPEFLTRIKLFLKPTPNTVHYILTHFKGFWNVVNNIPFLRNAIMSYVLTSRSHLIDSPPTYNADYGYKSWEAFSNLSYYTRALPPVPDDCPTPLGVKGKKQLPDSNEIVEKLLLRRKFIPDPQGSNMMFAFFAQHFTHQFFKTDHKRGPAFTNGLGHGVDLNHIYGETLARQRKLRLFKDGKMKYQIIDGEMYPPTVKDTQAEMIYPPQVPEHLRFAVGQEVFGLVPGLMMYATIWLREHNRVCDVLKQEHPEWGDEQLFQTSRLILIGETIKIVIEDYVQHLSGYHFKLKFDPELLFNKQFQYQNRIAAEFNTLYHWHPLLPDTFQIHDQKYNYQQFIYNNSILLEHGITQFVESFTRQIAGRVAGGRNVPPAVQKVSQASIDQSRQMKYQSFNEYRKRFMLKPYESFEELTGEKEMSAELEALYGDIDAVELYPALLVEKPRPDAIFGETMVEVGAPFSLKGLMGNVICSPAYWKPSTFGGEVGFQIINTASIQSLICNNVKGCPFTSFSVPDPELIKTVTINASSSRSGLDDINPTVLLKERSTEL
Put plainly: COX-2 activity assay (PGE2 EIA system). It is filed as biochemical. To be noted: concentrations up to 20 mM; 0.05 units COX-2, 1 μM arachidonic acid; data not shown. As to the method: COX-2 Activity Assay. Modifying the method of Ouellet and co-workers (Proc. Natl. Acad. Sci. USA, 98:14583-14588 (2001)), COX-2 activity was determined using the PGE2 EIA system. Briefly, COX-2 (Oxford Biomedical, Oxford, Mich.) was incubated at 37° C. for 5 minutes with arachidonic acid (AA), 500 μM phenol, and 1 μM hematin in a 100 mM phosphate buffer (pH 6.5). The reaction was stopped with a solution containing dH2O/MeOH/1 M citric acid (30:4:1). After optimization of COX-2 and AA, 0.05 units of COX-2 per incubation and 1 μM of AA were determined to be optimal. Varying concentrations of NAA and aspirin (pH 6.5) were pre-incubated with COX-2, hematin, and phenol for 15 minutes at 37° C. prior to AA addition. The reaction was stopped after 5-minute incubation with AA. PGE2 levels were determined using PGE2 EIA system as described.
Effect of NAA on COX-2 activity and mRNA. To determine if NAA was inhibiting the cyclooxygenase enzyme directly, a COX-2 activity assay was developed using the PGE2 EIA system. After optimizing for COX-2 and arachidonic acid (AA), a concentration of 0.05 units/incubation of COX-2 and 1 μM of AA was determined to be optimal.

Assay [3] deals with COX-2 protein in STTG cells. Put plainly: Western blot of total COX-2 protein in STTG cells. It is filed as cell-based, human. To be noted: 24 h, 200 μM aspirin, 10 mM NAA (FIG. 3); for effect on total amount of COX-2 protein: STTG cells stimulated with 1 or 2 ng/ml IL-1β; for effect on resting COX-2 protein: unstimulated STTG cells. As to the method: FIG. 3. Representative Western blot for total COX-2 protein in IL-1β-stimulated STTG cells treated with NAA and aspirin. Cells were incubated for 24 hours at 37° C., 10% CO2. Cells were dosed as follows: untreated (lane 1), 200 μM aspirin (lane 2), 10 mM NAA (lane 3), 1 ng/ml IL-1β (lane 4), 2 ng/ml IL-1β (lane 5), 1 ng/ml IL-1β+200 μM aspirin (lane 6), 2 ng/ml IL-1β+200 μM aspirin (lane 7), 1 ng/ml IL-1β+10 mM NAA (lane 8), or 2 ng/ml IL-1β+10 mM NAA (lane 9). Cells were lysed and COX-2 protein was immunoprecipitated overnight (1:500 goat anti-human COX-2) from 400 μg total lysate protein. Immunoprecipitate was loaded on 4-20% tris-glycine gel and transferred overnight onto nitrocellulose membrane. Total COX-2 protein was quantitated using a goat anti-human COX-2 antibody (1:100) and 1:5,000 rabbit anti-goat IgG. The membrane was visualized by chemiluminescence.
Western Blot of COX-2. STTG cells were treated with either NAA or aspirin and immediately stimulated with 1 or 2 ng/ml IL-1β (Sigma-Aldrich, St. Louis, Mo.). After a 24-hour incubation at 37° C. (10% CO2), cells were lysed and total protein was quantitated by BCA (Pierce, Rockford, Ill.). Then, 0.5 mg lysate was immunoprecipitated using 1:500 goat anti-human COX-2 (Santa Cruz Biotechnology, Santa Cruz, Calif.) and Protein AG beads (Pierce, Rockford, Ill.) overnight at 4° C. Samples were loaded on a 4-20% Tris-Glycine gel (Invitrogen, Carlsbad, Calif.) and transferred to a nitrocellulose membrane overnight. The membrane was blocked with 5% Blotto (Santa Cruz Biotechnology, Santa Cruz, Calif.), and COX-2 was detected using 1:100 goat anti-human COX-2 (Santa Cruz Biotechnology, Santa Cruz, Calif.) and 1:5,000 rabbit anti-goat IgG HRP (Santa Cruz Biotechnology, Santa Cruz, Calif.). The membrane was visualized using ECL (Amersham, Piscataway, N.J.) and exposed to X-ray film.
Background: In western blotting, separated proteins are transferred to a membrane and probed.

Assay [4] relates to COX-2 mRNA in STTG astroglial cells. Description: RT-PCR of COX-2 in STTG cells. It counts as cell-based, human. To be noted: 5 and 10 mM, data not shown. As to the method: RT-PCR of COX-2. STTG cells were grown to near confluency on 25 cm^2 cell culture flasks. Cells were dosed with 5 or 10 mM NAA and incubated for 4 or 24 hours at 37° C., 10% CO2. RNA was isolated using Rneasy Mini Kit (Qiagen, Valencia, Calif.) and quantitated using A260/A280 assay. Then, 2 μg of RNA was converted to cDNA using the Omniscript Reverse Transcriptase Kit (Qiagen, Valencia, Calif.). PCR was next performed using HotStarTaq Master Mix (Qiagen, Valencia, Calif.). COX-2 forward ([…] [SEQ ID NO:1]) and reverse primers ([…] [SEQ ID NO:2]) were obtained from Qiagen (Valencia, Calif.) and used at a concentration of 0.5 μM. The PCR thermal cycler program consisted of: 1) 1 denaturation cycle of 15 minutes at 95° C.; 2) 30 cycles of 94° C. (30 sec denaturation), 55° C. (30 sec annealing), and 72° C. (30 sec elongation); and 3) 1 elongation cycle of 10 minutes at 72° C. PCR product was then loaded on a 2% (w/v) agarose gel and stained with ethidium bromide.

Where [5] appears, read: 5 mM, ionomycin-stimulated STTG cells.
The mark [6] stands for this setting: 10 mM, ionomycin-stimulated STTG cells.
Where [7] appears, read: ionomycin-stimulated STTG cells, result in words.

The values below come from US20080167376A1, “Methods and products which utilize N-acyl-L-aspartic acid” (DMI BIOSCIENCES, INC., priority 2003, published 2008).

The structures appear in SMILES notation.

One may read the inhibition as how much of the control response was suppressed.

For `CCOC(=O)CC[C@H](N)C(=O)OCC` [GDE, L-glutamic acid diethyl ester, reference compound], the “decrease in PGE2 release” value in assay [1] (setting [5]) turned out to be 40%; in assay [1] (setting [6]), 60%. Besides, the “effect on total PGE2 release” value in assay [1] (setting [7]) is recorded as “did decrease”.

Regarding `N[C@@H](CCP(=O)(O)O)C(=O)O` [L-AP-4, L-2-amino-4-phosphonobutyric acid, reference compound], the “effect on total PGE2 release” value in assay [1] (setting [7]) is reported as “did decrease”.

With `CC(=O)N[C@@H](CC(=O)O)C(=O)O` [NAA, N-acetyl-L-aspartic acid], the “decrease in NFκB production (activated NFκB)” value in assay [2] (10 mM) is recorded as 17.5%; in assay [2] (20 mM), 40%. The “decrease in PGE2 production” value was determined as 56% in assay [1] (5 mM, 1 h pre-incubation, 1 μM ionomycin 24 h, STTG cells, FIG. 1) and 76% in assay [1] (10 mM, 1 h pre-incubation, 1 μM ionomycin 24 h, STTG cells, FIG. 1). Also, the “decrease in PGE2 release” value in assay [1] (setting [5]) turned out to be 60%; in assay [1] (setting [6]) it was 90%. In addition, in assay [1] (Homo sapiens, 20 mM, 1 h pre-incubation, 1 μM ionomycin 24 h, STTG cells, FIG. 1, read-out: decrease in PGE2 production (inhibition)), the inhibition at 20000 µM is more than 95%. In addition, the “effect on COX-2 activity” value at COX-2 was “no effect”. Moreover, the “effect on total amount of COX-2 protein” value in assay [3] was “decreased”. Further, in assay [3], the “effect on resting COX-2 protein” value is given as “no effect”. Besides, the “effect on total COX-2 mRNA” value in assay [4] was “did not decrease”.

As for `CC(=O)Oc1ccccc1C(=O)O` [aspirin, reference compound], the “inhibition of cyclooxygenases as evidenced by lack of PGE2 production” value in assay [1] (ionomycin-stimulated STTG cells, FIG. 1, result in words) was “complete inhibition”. For the same compound, in assay [3], the “effect on total amount of COX-2 protein” value is given as “decreased” and the “effect on resting COX-2 protein” value is reported as “decreasing effect”.
